Measurements reported in PubChem BioAssay AID1259334 (Broad Institute, 2017).
Active and inactive are the calls of the source. Rule as the data show it: active = AC50 below about 11 µM.

Test system: B cell line, TNFa signaling counterscreen reporter
Assay: TNFa signaling inhibitors in B cell line, dose response, counter-screen (AID 1259334);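 also: cells stimulated with TNFa after compound preincubation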

SMILES	AC50
O=C(C1CCCC1)N1CC(=O)N2[C@@H](CO)[C@@H](c3ccc(C#CCc4ccccc4)cc3)[C@@H]2C1	1.7 µM
OC1CC2CCC(C1)N2CCCN1c2ccccc2Sc2ccc(Cl)cc21 (stereo unspecified)	9.1 µM
C[C@@H]1CN([C@@H](C)CO)C(=O)c2c(c3ccccc3n2C)-c2ccccc2CO[C@H]1CN(C)Cc1cccc(C(F)(F)F)c1	6.02 µM
Cc1ccc(OC(=O)N(C)C[C@@H]2OCc3ccccc3-c3c(n(C)c4ccccc34)C(=O)N([C@@H](C)CO)C[C@H]2C)cc1	7.67 µM
N#C[C@H]1[C@H](c2ccc(-c3cccc(F)c3)cc2)[C@H](CO)N1C(=O)NC1CCCC1	> 20 µM (inactive)
CC1(C)C(=O)C=C[C@@]2(C)C1C[C@@H](O)[C@]1(C)C2CC[C@@]2(C)[C@H](c3ccoc3)OC(=O)[C@H]3O[C@]321 (stereo partly specified)	11.3 µM
C[C@@H]1CN([C@@H](C)CO)C(=O)Cc2cc(NS(=O)(=O)c3ccc(F)cc3)ccc2O[C@H]1CN(C)Cc1ccc(C(F)(F)F)cc1	5.36 µM
c1ccc2sc(-c3ccc4c(c3)OCO4)nc2c1	8.09 µM
Cc1ccc(S(=O)(=O)NC(C(=O)Oc2cc3oc(=O)cc(C)c3cc2Cl)C(C)C)cc1 (stereo unspecified)	9.41 µM
C[C@@H]1CN([C@@H](C)CO)C(=O)c2c(c3ccccc3n2C)-c2ccccc2CO[C@@H]1CN(C)Cc1ccccc1C(F)(F)F	> 20 µM (inactive)
N#C[C@@H]1[C@H](c2ccc(C#CC3CCCCC3)cc2)[C@@H](CO)N1C(=O)Nc1ccc(F)cc1	> 20 µM (inactive)
CN1C(=O)/C(=N\OC(=O)c2cccc3ccccc23)c2ccccc21	1.85 µM
N#Cc1c(Br)n(C2OC(CO)C(O)C2O)c2ncnc(N)c12 (stereo unspecified)	1.16 µM
Cc1ccc(S(=O)(=O)C=CS(=O)(=O)c2ccc(C)cc2)cc1	1.22 µM
CNC(=S)NN=C(C)CCCC(C)=NNC(=S)NC	2.47 µM
C[C@H]1CN([C@@H](C)CO)C(=O)c2c(c3ccccc3n2C)-c2ccccc2CO[C@@H]1CN(C)Cc1cccc(C(F)(F)F)c1	8.42 µM
O=C(Nc1ccc(C(F)(F)F)cc1)N1C[C@@H]2N[C@H](C1)C2c1ccc(-c2ccccc2)cc1 (stereo partly specified)	3.28 µM
C[C@@H]1CN([C@@H](C)CO)S(=O)(=O)c2ccc(C#Cc3ccccc3F)cc2O[C@H]1CN(C)C(=O)Cc1cccnc1	> 20 µM (inactive)
Cc1ccc(C(OCC(O)CNCc2ccc(F)cc2)c2ccccc2)cc1 (stereo unspecified)	7.2 µM
C[n+]1c(-c2ccccc2)cc2c(=Cc3ccc([N+](=O)[O-])cc3)c3ccccc3n21	2.96 µM
O=C(Nc1cccc(N2C(=O)C=CC2=O)c1)c1cccs1	1.22 µM
Cc1csc(NC(=O)c2ccc(N3CCCC3=O)cc2)n1	3.75 µM

SMILES	AC50
N#C[C@H]1[C@H](c2ccc(C#Cc3ccccc3F)cc2)[C@@H](CO)N1C(=O)c1cccnc1	9.37 µM
COc1ccc2c3c([nH]c2c1)[C@H](CO)N(C(=O)Nc1ccc(F)cc1)CC31CN(Cc2cc(F)ccc2F)C1	> 20 µM (inactive)
COC(=O)c1ccccc1-c1c2ccc(=N)cc-2oc2cc(N)ccc12	4.57 µM
C[C@H](CO)N1C[C@H](C)[C@H](CN(C)C(=O)Nc2cccc(Cl)c2Cl)OCc2ccccc2-c2c(n(C)c3ccccc23)C1=O	2.81 µM
Cc1ccc(S(=O)(=O)N[C@@H](Cc2ccccc2)C(=O)CCl)cc1	1.2 µM
N#CC(C#N)=NNc1ccc(OC(F)(F)F)cc1	7.15 µM
COc1ccc(S(=O)(=O)Nc2ccc3c(c2)C(=O)N([C@H](C)CO)C[C@@H](C)[C@@H](CN(C)Cc2ccc(C(F)(F)F)cc2)OCCCC[C@H](C)O3)cc1	> 20 µM (inactive)
C[C@H]1CN([C@@H](C)CO)C(=O)c2c(c3ccccc3n2C)-c2ccccc2CO[C@@H]1CN(C)C(=O)Nc1cccc(C(F)(F)F)c1	9.38 µM
COC(=O)c1nn(-c2ccc(-c3ccccc3)cc2)cc1O	8.92 µM
COc1ccc(-c2cc(-c3ccccc3)c(C#N)c(S(C)=O)n2)cc1 (stereo unspecified)	1.53 µM
Cc1ccc2c(c1)C(O)(CC(=O)/C=C/C=C/c1ccccc1)C(=O)N2 (stereo unspecified)	> 20 µM (inactive)
Clc1ccc(COC(Cn2ccnc2)c2ccc(Cl)cc2Cl)c(Cl)c1 (stereo unspecified)	8.2 µM
O=S(=O)(/C(=C\c1ccc(C(F)(F)F)cc1)c1nc2ccccc2[nH]1)c1ccccc1	0.497 µM
CC(=O)O[C@H]1C[C@H](O[C@H]2[C@@H](O)C[C@H](O[C@H]3[C@@H](O)C[C@H](O[C@H]4CC[C@@]5(C)C(CCC6C5C[C@@H](O)[C@]5(C)[C@@H](C7=CC(=O)OC7)CC[C@]65O)C4)O[C@@H]3C)O[C@@H]2C)O[C@H](C)[C@H]1O[C@@H]1O[C@H](CO)[C@@H](O)[C@H](O)[C@H]1O (stereo partly specified)	1.01 µM
CCOc1ccc(OCc2cccc(C(=O)N3CCOCC3)c2)cc1	2.84 µM
CC(C)(C)[S@](=O)N1Cc2cc(C(=O)NCC(F)(F)F)nc(-c3cccc(-c4cccc(F)c4)c3)c2[C@@H]1CCO	> 20 µM (inactive)
C[C@H](CO)N1C[C@H](C)[C@H](CN(C)S(=O)(=O)c2ccc(Cl)cc2)Oc2c(NC(=O)Nc3ccc(F)cc3)cccc2C1=O	4.98 µM
N#C[C@@H]1[C@H](c2ccc(C#CC3CCCCC3)cc2)[C@H](CO)N1C(=O)Nc1ccc(F)cc1	> 20 µM (inactive)
CC1CC(C)CC(C)C(O)C(C#N)=CC=CCC(C2CCCC2C(=O)O)OC(=O)CC(O)C(C)C1 (stereo unspecified)	< 0.0005 µM
COc1ccccc1NC(c1cccnc1)c1ccc2cccnc2c1O (stereo unspecified)	8.22 µM
CC(=O)OC(C)(C)/C=C/C(=O)C(C)(O)C1C(O)CC2(C)C3CC=C4C(CC(O)C(=O)C4(C)C)C3(C)C(=O)CC12C (stereo unspecified)	0.029 µM
Cc1cc(C(=O)COC(=O)CNC(=O)c2ccccc2)c(C)n1CC1CCCO1 (stereo unspecified)	5.61 µM

SMILES	AC50
CC(=O)OC1C(=O)OCC23CCC4(C)OC4C2OC2CC(OC(=O)C=CC=CC(=O)OCCC1C)C3(C)C21CO1 (stereo unspecified)	0.00412 µM
CC1OC(OC2C(O)CC(OC3C(O)CC(OC4CCC5(C)C(CCC6C5CCC5(C)C(C7=CC(=O)OC7)C(O)CC65O)C4)OC3C)OC2C)CC(O)C1O (stereo unspecified)	0.745 µM
O=C(Cn1ncc(Cl)c(Cl)c1=O)NC1CCCCC1	2.42 µM
CCCCCCCCCc1ccc(OCCOCCOCCOCCOCCOCCOCCOCCOCCO)cc1	4.58 µM
O=C(Nc1ccccc1F)N1C[C@@H]2N[C@H](C1)C2c1ccc(/C=C/c2ccccc2)cc1 (stereo partly specified)	1.39 µM
O=C(O)c1ccc(Nc2nc3c(s2)CCCC3)cc1	5.3 µM
CCCC(=O)NC1=C(Cl)C(=O)c2ccccc2C1=O	0.712 µM
COc1ccc2c3c(n(C)c2c1)[C@@H](CO)N(C(=O)Nc1ccc(F)cc1)CC31CN(Cc2ccccc2F)C1	> 20 µM (inactive)
C[C@@H]1CN([C@H](C)CO)C(=O)c2cc(NS(=O)(=O)c3cccs3)ccc2O[C@@H](C)CCCCO[C@H]1CN(C)Cc1ccc(Cl)c(Cl)c1	> 20 µM (inactive)
CCN1C(=O)C(CC(=O)Nc2ccc(F)cc2)N(Cc2ccco2)C1=S (stereo unspecified)	> 20 µM (inactive)
C[C@@H]1CN([C@H](C)CO)C(=O)c2ccccc2-c2ccccc2CO[C@@H]1CN(C)Cc1ccccc1C(F)(F)F	10.7 µM
C[C@@H]1O[C@@H](O[C@H]2C[C@@H](O)[C@]3(CO)[C@H]4[C@H](O)C[C@]5(C)[C@@H](C6COC(=O)C6)CC[C@]5(O)[C@@H]4CC[C@]3(O)C2)[C@H](O)[C@H](O)[C@H]1O (stereo partly specified)	2.76 µM
CC[C@@]1(O)C(=O)OCc2c1cc1n(c2=O)Cc2cc3ccccc3nc2-1	0.531 µM
O=C(COC(=O)c1ccccc1)c1ccc2c(c1)OCCO2	0.986 µM
NC(c1csc(NC(=O)Nc2cccc(Cl)c2)n1)c1ccccc1Cl (stereo unspecified)	7.41 µM
CCC(=O)NC(c1ccccc1OC)c1ccc2cccnc2c1O (stereo unspecified)	9.46 µM
COc1ccc(C#Cc2ccc([C@H]3[C@H]4CN(C(=O)c5ccncc5)CCCCN4[C@H]3CO)cc2)cc1	8.29 µM
O=C(c1nnsc1S(=O)(=O)c1ccc(Cl)cc1)N1CCOCC1	2.07 µM
COc1cccc2c1C(=O)c1c(O)c3c(c(O)c1C2=O)C[C@@](O)(C(C)=O)C[C@@H]3O[C@H]1C[C@H](N)[C@H](O)[C@H](C)O1	0.359 µM
CC[N+]1(C)CCC(O)(c2ccc(OC)cc2)C(C(=O)c2ccc(OC)cc2)C1 (stereo unspecified)	3.52 µM
N#C[C@@H]1[C@H](c2ccc(C#Cc3ccccc3F)cc2)[C@@H](CO)N1C(=O)C1CC1	3.39 µM
c1ccc(OCCSc2nnc3sc4ccccc4n23)cc1	2.98 µM

SMILES	AC50
CCOc1ncccc1C(=O)OC(C)C(=O)Nc1ccc(Cl)cn1 (stereo unspecified)	10.3 µM
CC(C)(C)CC(C)(C)c1ccc(OCCOCC[N+](C)(C)Cc2ccccc2)cc1	1.75 µM
COc1ccc(S(=O)(=O)Nc2ccc3c(c2)C(=O)N([C@@H](C)CO)C[C@@H](C)[C@@H](CN(C)Cc2ccc(C(F)(F)F)cc2)OCCCC[C@@H](C)O3)cc1	> 20 µM (inactive)
COc1cccc(-c2cc(=O)c3cc(OC)ccc3o2)c1	3.07 µM
C[C@@H]1CC=CC[C@H](c2ccc(F)cc2)NC(=O)[C@@H](Cc2ccccc2)N(C)C(=O)c2ccccc2O1 (mixture of isomers)	> 20 µM (inactive)
Cc1cnc(NC(=O)c2ccc(OCC3CCCO3)cc2)s1 (stereo unspecified)	4.02 µM
CC(C)c1c(O)ccc2c1CCC1C(C)(C)CCC[C@]21C (stereo partly specified)	5.43 µM
C[C@@H]1O[C@@H](O[C@H]2C[C@@H](O)[C@]3(CO)C4C(CC[C@]3(O)C2)[C@@]2(O)CC[C@H](C3=CC(=O)OC3)[C@@]2(C)C[C@H]4O)[C@H](O)[C@H](O)[C@H]1O (stereo partly specified)	0.138 µM
O=C(Nc1ccc(C(F)(F)F)cc1)Nc1ccc2c(c1)[C@H]1C[C@@H](CC(=O)N3CCc4ccccc4C3)O[C@@H](CO)[C@H]1O2	> 7 µM (inactive)
CCCCCN1C=CC(=C2C(=O)c3ccccc3C2=O)C=C1	0.316 µM
Cc1c(CCOC(=O)CC23CC4CC(CC(C)(C4)C2)C3)sc[n+]1CC(=O)c1ccccc1	1.81 µM
CSc1ccc2c(c1)N(CCC1CCCCN1C)c1ccccc1S2 (stereo unspecified)	6.07 µM
CC(C)(C)CC(C)(C)c1ccc(O)c(Cc2ccc(Cl)cc2Cl)c1	5.5 µM
CC(OC(=O)c1cc(Br)ccc1O)C(=O)Nc1ccc(S(=O)(=O)N2CCCC2)cc1 (stereo unspecified)	7.82 µM
COc1ccc(C(=O)CCN2CCc3cc(OC)c(OC)cc3C2)cc1	5.97 µM
CC1OC(CC(=O)O)CC2=C1C(=O)c1c(O)cccc1C2=O (stereo unspecified)	0.0869 µM
CC(C)=CCc1c2c(c3occ(-c4ccc(O)c(O)c4)c(=O)c3c1O)C=CC(C)(C)O2	8.15 µM
COC(=O)C1=C(C(=O)OC)C2OC1c1cc3ccccc3cc12	0.519 µM
CCN(CC)CCCNc1nc2ccccc2c2[nH]c3ccc(OC)cc3c12	2.11 µM
Cc1ccc(S(=O)(=O)CCC(=O)N(CCCN2CCOCC2)c2nc3ccccc3s2)cc1	7.38 µM
